“Also recorded” adds a separate entry of the source.
Columns and labels:
Format in all cases: in vivo, rat
TNF-α [1] = test: Blast-induced TNF-α protein levels in auditory brain regions (ELISA and Western blot)
Method: The therapeutic drug used was 3,6′-dithiothalidomide, which was synthesized according to a published procedure to greater than 99.8% chemical purity (Baratz et al., 2011; W. Luo et al., 2008). The drug was freshly prepared prior to each study. 3,6′-dithiothalidomide was prepared as a suspension in 1% carboxymethyl cellulose to provide a final concentration of 28 or 56 mg/kg (0.1 mL/10 g and 0.1 mL/100 g body weight injection in mice and rats, respectively), and was administered intraperitoneally (i.p.). These concentrations of 3,6′-dithiothalidomide are equimolar to 25 and 50 mg/kg of thalidomide.
(§1) Each of the rats was subjected to blast exposure in the left ear using a shock tube (ORA Inc.) located at the Wayne State University Bioengineering Center. The blast exposure of each rat was performed under anesthesia with a mixture of air (1 liter/min) and isoflurane (5% v/v). The rat was placed on supportive netting with a metal surround and secured on a pole with its head facing the oncoming shockwave. During blast exposure, the rat's right ear was occluded with a silicone earplug (Mack's; McKeon Products, Warren, Mich.), followed by application of mineral oil to seal any remaining openings. The average energy under 10 kHz measured at 22 psi was equivalent to 150 kPa or 197.5 dB SPL. After blast exposure, each rat was transferred to a polycarbonate cage.
Two exposed groups received either 56 mg/kg 3,6′-dithiothalidomide i.p. or vehicle for two days starting on the same day of the blast exposure. Another two exposed groups received 56 mg/kg 3,6′-dithiothalidomide i.p. or vehicle treatment for five days starting on the day of the blast exposure. Two more exposed groups received 56 mg/kg 3,6′-dithiothalidomide i.p. or vehicle treatment for five days starting on the fifth day after blast exposure. On the last day of the drug/vehicle injection, brain samples were collected. ELISA and Western blot was performed to determine the effects of blast and 3,6′-dithiothalidomide treatment on TNF-α protein levels.

[2] = tested on: glial fibrillary acidic protein (GFAP); test: GFAP immunostaining densitometry of AC astrocytes after blast; details: immunostained AC astrocytes, FIG. 24B
Text: (§2) FIGS. 24A and 24B depict densitometry measurements of glial fibrillary acidic protein (GFAP) and TNF-α expression, respectively, as observed by fluorescence microscopy of immunohistochemistry-stained AC astrocytes. […] The decrease in astrocyte TNF-α expression was relatively smaller than the decrease in microglial TNF-α expression (compare […] with FIG. 23B). […] Error bars in FIGS. 24A-24B depict standard deviation.

TNF-α [3] = test: TNF-α immunostaining densitometry of microglia and astrocytes after blast
Text: FIGS. 23A and 23B depict densitometry measurements of ionized calcium-binding adapter molecule 1 (Iba-1) and TNF-α expression, respectively, as observed by fluorescence microscopy of immunohistochemistry-stained microglia. […] Error bars in FIGS. 23A-23B depict standard deviation.
as §2

AC pyramidal neurons = test: Patch clamp recording of miniature synaptic currents in AC slices after blast exposure
Method: Two groups of 7 rats each were exposed to blast shockwaves as described above, and an additional group of 7 rats was sham-exposed. One of the exposed groups was administered 3,6′-dithiothalidomide for five days starting on the day of the exposure, and the other exposed group was administered vehicle. Brain slides were prepared from the AC of the rats 10-20 days after the blast exposure. Pyramidal neurons were recorded using the patch clamp method. Miniature synaptic currents were recorded to assess the functional states of the excitatory and inhibitory synaptic transmission. Neurons were filled with biocytin, which was stained with immunocytochemistry to reveal the morphology of the recorded neurons.

blast-exposed rats = test: Blast-induced tinnitus behavioral testing (gap detection and PPI, startle reflex), 3,6′-dithiothalidomide
Method: as §1
Thirty two rats from Example 10 were used. Behavioral tinnitus testing, including gap detection and PPI testing, was conducted with Hamilton-Kinder startle-reflex hardware and software. During behavioral testing, each rat was placed in an individual noise-attenuation chamber to perform gap and PPI testing. In the gap procedure, each rat was presented with a constant 60-dB SPL background noise composed of 2,000 Hz bandpass signals at 6-8, 10-12, 14-16, 18-20, or 26-28 kHz or broadband noise (BBN; 2-30 kHz). A 115 dB SPL, 50 ms noise-burst was used as the startle stimulus to induce the acoustic startle reflex. The background noise session contained two conditions, one condition was the startle only condition in which rat was presented with the startle stimulus alone, and the other condition was the gap condition in which a rat was presented with a startle stimulus preceded by a silent gap embedded within the background noise. Silent gaps were 40 ms in duration with a lead interval of 90 ms to the startle stimulus. The startle reflex of rats was measured in response to 3 conditions: 1) background noise alone, 2) startle only, and 3) gap. Detection of the gap results in a reduction in the startle amplitude. Development of tinnitus in a specific frequency band impairs gap detection in the corresponding gap-carrier band, and thus, the startle amplitude reaches amplitudes elicited without the gap. For the PPI procedure, the parameters were almost the same as with gap except that no background noise or silent gap was used. The startle amplitude of rats in response to the two conditions was measured: the startle-only condition and a prepulse followed by the startle stimulus. In the latter condition, a 60-dB SPL, 40-msec prepulse was introduced 90 msec before the startle stimulus. The acoustic startle reflex of the rat decreased in response to the prepulse except when the rat had hearing loss at a frequency similar to the prepulse.
Rats were exposed or sham-exposed to a blast shockwave. To determine whether TNF-α is involved in blast-induced tinnitus, the rats were injected once daily for 5 days with 3,6′-dithiothalidomide starting 7 days after blast exposure. Behavioral testing and ABR recordings started 1 day after drug injection and lasted for three weeks.

O=C1NC(=S)CCC1N1C(=O)c2ccccc2C1=S (stereo not drawn) [3,6′-dithiothalidomide]
TNF-α protein levels in AC, ELISA (TNF-α [1]; blast-exposed rat AC, 56 mg/kg i.p., FIG. 10): reduced TNF-α protein levels | TNF-α protein levels in DCN, ELISA (TNF-α [1]; blast-exposed rat DCN, 56 mg/kg i.p., FIG. 11): reduced TNF-α protein levels | TNF-α protein levels in IC, ELISA (TNF-α [1]; blast-exposed rat IC, 56 mg/kg i.p., FIG. 12): reduced TNF-α protein levels | statistical significance of the reduction of TNF-α protein levels in IC (TNF-α [1]; blast-exposed rat IC, FIG. 12): did not achieve statistical significance | translational/posttranslational increase in the TNF-α protein level (TNF-α [1]; blast-exposed rats): cannot block such an increase | reduction in TNF-α protein levels in DCN vs corresponding vehicle group (TNF-α [1]; group treated five days starting on the day of blast (5 Days), P<0.05): statistical significance | reduction in TNF-α protein levels in AC vs corresponding vehicle group (TNF-α [1]; group treated five days starting on the fifth day after blast (10 Days), P<0.05): statistical significance | statistical significance of the reduction of TNF-α protein levels in AC and DCN (TNF-α [1]; rat AC and DCN, vs vehicle, P<0.05): reached statistical significance; also recorded: significant reduction | TNF-α protein levels after blast exposure (TNF-α [1]; rat AI, DCN and IC, 56 mg/kg i.p., 2, 5 and 10 days after blast, FIGS. 10-13): partially reduced TNF-α protein levels | blast-induced astrocyte GFAP expression [2]: is blocked | blast-induced astrocyte TNF-α expression (TNF-α [3]; immunostained AC astrocytes, FIG. 24A): partially blocked | blast-induced microglial TNF-α expression (TNF-α [3]; immunostained microglia, FIG. 23B): is blocked | cumulative distribution of mIPSC frequency (blast-induced shift to lower frequencies) (AC pyramidal neurons; 56 mg/kg i.p., Kolmogorov-Smirnov Test p<0.001, FIG. 19): reversed this effect | mIPSCs in recording traces of auditory cortical neurons (AC pyramidal neurons; blast-exposed rats, drug for five days from day of exposure, vs vehicle-treated, FIG. 17C): less reduction in mIPSCs | mIPSC frequency (blast-induced reduction) (AC pyramidal neurons; blast-exposed rats, 56 mg/kg i.p. daily, FIG. 18B): completely abolished the blast-induced reduction | mIPSC amplitude (AC pyramidal neurons; blast-exposed rats, 56 mg/kg i.p., relative to sham-blast controls, FIG. 18A): did not significantly change mIPSC amplitudes | startle force of the startle-only condition, gap test (blast-exposed rats; acute tinnitus rats, 56 mg/kg i.p., post drug vs post blast, FIG. 14A): recovered significantly | startle force of the startle-only condition, PPI test (blast-exposed rats; acute tinnitus rats, 56 mg/kg i.p., post drug vs post blast, FIG. 14B): recovered significantly | gap ratio values (gap/startle-only response) (blast-exposed rats; deficit at 7 days after blast, after 5 days of treatment, FIG. 15A): recovered significantly | PPI ratio values (PPI/startle-only response) (blast-exposed rats; deficit at 7 days after blast, after 5 days of treatment, FIG. 15B): recovered significantly | tinnitus score (blast-exposed rats; tinnitus 7 days after blast, after 5 days of treatment, FIG. 16A): recovered significantly

Reference: patent publication US20180021315A1, “METHODS OF TREATING HEARING DISORDERS” (Wayne State University, priority 2016, published 2018)
